The values that follow come from patent US20200061036A1, “ACECLIDINE ISOMERS AND SCALEMIC MIXTURES THEREOF FOR THE TREATMENT OF PRESBYOPIA” (Presbyopia Therapies, LLC, priority 2018, published 2020).

Bounds are passed on as bounds.

In one assay the test system is subject. Nature of the assay: Net gain in lines of visual acuity at 45 centimeters after binocular instillation of aceclidine enantiomer solutions (Example 1, prophetic). The assay is classed as in vivo. To be noted: for Net gain in lines of visual acuity versus baseline, monocularly: first figure of cell; for Net gain in lines of visual acuity versus baseline, binocularly: second figure of cell. As for the experimental part: Solutions containing scalemic mixtures of or enantiomerically pure aceclidine in 1.50% w/v polysorbate 80, 1.2% w/v hydroxypropylmethyl cellulose, 0.1% w/v disodium ethylenediaminetetraacetic acid, 0.1% w/v sorbate in 0.9% w/v sodium chloride buffered saline at a pH of 6.5 were instilled, binocularly in a subject. The subject's visual acuity at 45 centimeters was then tested both monocularly and binocularly. Net gain in lines of visual acuity versus baseline monocularly/binocularly are shown in Table 1 below at 1, 2 and 5 hours post-instillation.

The next assay relates to accommodation. To be noted: cited from earlier work.

Consider `CC(=O)OC1CN2CCC1CC2` (centres unmarked) [50/50, aceclidine], for which the “Net gain in lines of visual acuity versus baseline, monocularly” value stood at 2.00 lines in the assay with subject (1 hour post-instillation), 1.50 lines with subject (2 hours post-instillation) and 1.00 lines with subject (5 hours post-instillation). In addition, the figures for the “Net gain in lines of visual acuity versus baseline, binocularly” value in the assay with subject (1 hour post-instillation), with subject (2 hours post-instillation) and with subject (5 hours post-instillation) were 3.00 lines, 2.50 lines and 1.50 lines, respectively.

On to `CC(=O)OC1CN2CCC1CC2` (centres unmarked) [100/0, aceclidine], for which the “Net gain in lines of visual acuity versus baseline, monocularly” value with subject (1 hour post-instillation) turned out to be 2.00 lines; in the assay with subject (2 hours post-instillation), 1.75 lines; in the assay on subject (5 hours post-instillation), 1.50 lines. Besides, the “Net gain in lines of visual acuity versus baseline, binocularly” value turned out to be 3.50 lines in the assay on subject (1 hour post-instillation), 3.00 lines with subject (2 hours post-instillation) and 2.50 lines in the assay on subject (5 hours post-instillation).

Consider `CC[C@@H]1C(=O)OC[C@@H]1Cc1cncn1C` [Pilocarpine, pilocarpine], for which the “induced accommodation documented in presbyopes” value in the assay with accommodation (2% concentration, presbyopes) is recorded as ≥ −5 D.

As for `CC(=O)OC1CN2CCC1CC2` (centres unmarked) [aceclidine], the induced accommodation in the assay with accommodation (as little as, with a range of variability) is on record as −0.37 D.

For the compound aceclidine [25/75], the results for the “Net gain in lines of visual acuity versus baseline, monocularly” value with subject (1 hour post-instillation), in the assay on subject (2 hours post-instillation) and with subject (5 hours post-instillation) were 1.50/1.50 lines, 0.75 lines and 0.50 lines, respectively. Also, the entries for the “Net gain in lines of visual acuity versus baseline, binocularly” value with subject (1 hour post-instillation), with subject (2 hours post-instillation) and in the assay with subject (5 hours post-instillation) were 1.50/1.50 lines, 1.25 lines and 1.00 lines, respectively.

On to aceclidine [62.5/22.5], for which the “Net gain in lines of visual acuity versus baseline, monocularly” value worked out at 1.40 lines with subject (1 hour post-instillation), 1.70 lines with subject (2 hours post-instillation) and 1.20 lines in the assay on subject (5 hours post-instillation). Besides, the “Net gain in lines of visual acuity versus baseline, binocularly” value turned out to be 3.20 lines in the assay with subject (1 hour post-instillation), 2.70 lines with subject (2 hours post-instillation) and 1.60 lines in the assay with subject (5 hours post-instillation).

In the case of aceclidine [75/25], the results for the “Net gain in lines of visual acuity versus baseline, monocularly” value in the assay with subject (1 hour post-instillation), in the assay on subject (2 hours post-instillation) and in the assay with subject (5 hours post-instillation) were 1.50 lines, 1.20 lines and 0.70 lines, respectively. The figures for the “Net gain in lines of visual acuity versus baseline, binocularly” value with subject (1 hour post-instillation), in the assay with subject (2 hours post-instillation) and in the assay with subject (5 hours post-instillation) were 2.50 lines, 2.80 lines and 2.00 lines, respectively.

For the compound aceclidine [87.5/12.5], the “Net gain in lines of visual acuity versus baseline, monocularly” value in the assay on subject (1 hour post-instillation) is 1.75 lines; with subject (2 hours post-instillation), 1.40 lines; in the assay with subject (5 hours post-instillation) it was 0.90 lines. In addition, the “Net gain in lines of visual acuity versus baseline, binocularly” value with subject (1 hour post-instillation) worked out at 3.25 lines; in the assay with subject (2 hours post-instillation), 2.90 lines; in the assay on subject (5 hours post-instillation), 2.25 lines.
